Experiment [1] has as its target T1, Progesterone receptor (Rattus norvegicus) (UniProt Q63449).
T1 sequence (whole entry): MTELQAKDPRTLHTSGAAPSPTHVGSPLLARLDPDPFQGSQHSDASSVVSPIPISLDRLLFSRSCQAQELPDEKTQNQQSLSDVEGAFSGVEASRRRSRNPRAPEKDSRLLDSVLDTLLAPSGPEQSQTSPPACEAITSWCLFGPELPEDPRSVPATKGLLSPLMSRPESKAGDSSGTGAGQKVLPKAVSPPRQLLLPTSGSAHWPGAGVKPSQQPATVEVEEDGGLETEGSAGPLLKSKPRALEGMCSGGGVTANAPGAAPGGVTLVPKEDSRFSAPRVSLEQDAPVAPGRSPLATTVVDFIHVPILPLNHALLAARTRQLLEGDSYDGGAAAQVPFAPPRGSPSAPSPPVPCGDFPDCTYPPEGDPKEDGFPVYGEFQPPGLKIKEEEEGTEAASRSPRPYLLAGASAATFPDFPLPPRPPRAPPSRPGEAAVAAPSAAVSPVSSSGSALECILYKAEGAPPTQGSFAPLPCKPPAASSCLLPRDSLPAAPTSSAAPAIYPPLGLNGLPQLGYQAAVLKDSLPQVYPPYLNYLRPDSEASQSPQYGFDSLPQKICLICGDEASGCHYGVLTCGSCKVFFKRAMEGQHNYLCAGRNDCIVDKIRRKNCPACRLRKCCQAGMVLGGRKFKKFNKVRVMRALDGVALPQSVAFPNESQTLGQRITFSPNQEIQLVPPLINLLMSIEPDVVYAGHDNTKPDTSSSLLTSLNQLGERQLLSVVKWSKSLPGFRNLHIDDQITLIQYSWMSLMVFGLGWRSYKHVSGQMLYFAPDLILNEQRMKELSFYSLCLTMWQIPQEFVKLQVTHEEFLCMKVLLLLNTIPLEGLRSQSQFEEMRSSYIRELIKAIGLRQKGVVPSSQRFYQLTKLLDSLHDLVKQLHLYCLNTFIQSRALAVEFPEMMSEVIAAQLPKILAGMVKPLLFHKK
Briefly: Binding affinity to rat uterus progesterone receptor at 0.01 uM.

In experiment [2] the target is T2, Androgen receptor (Rattus norvegicus) (UniProt P15207).
T2 sequence (whole entry): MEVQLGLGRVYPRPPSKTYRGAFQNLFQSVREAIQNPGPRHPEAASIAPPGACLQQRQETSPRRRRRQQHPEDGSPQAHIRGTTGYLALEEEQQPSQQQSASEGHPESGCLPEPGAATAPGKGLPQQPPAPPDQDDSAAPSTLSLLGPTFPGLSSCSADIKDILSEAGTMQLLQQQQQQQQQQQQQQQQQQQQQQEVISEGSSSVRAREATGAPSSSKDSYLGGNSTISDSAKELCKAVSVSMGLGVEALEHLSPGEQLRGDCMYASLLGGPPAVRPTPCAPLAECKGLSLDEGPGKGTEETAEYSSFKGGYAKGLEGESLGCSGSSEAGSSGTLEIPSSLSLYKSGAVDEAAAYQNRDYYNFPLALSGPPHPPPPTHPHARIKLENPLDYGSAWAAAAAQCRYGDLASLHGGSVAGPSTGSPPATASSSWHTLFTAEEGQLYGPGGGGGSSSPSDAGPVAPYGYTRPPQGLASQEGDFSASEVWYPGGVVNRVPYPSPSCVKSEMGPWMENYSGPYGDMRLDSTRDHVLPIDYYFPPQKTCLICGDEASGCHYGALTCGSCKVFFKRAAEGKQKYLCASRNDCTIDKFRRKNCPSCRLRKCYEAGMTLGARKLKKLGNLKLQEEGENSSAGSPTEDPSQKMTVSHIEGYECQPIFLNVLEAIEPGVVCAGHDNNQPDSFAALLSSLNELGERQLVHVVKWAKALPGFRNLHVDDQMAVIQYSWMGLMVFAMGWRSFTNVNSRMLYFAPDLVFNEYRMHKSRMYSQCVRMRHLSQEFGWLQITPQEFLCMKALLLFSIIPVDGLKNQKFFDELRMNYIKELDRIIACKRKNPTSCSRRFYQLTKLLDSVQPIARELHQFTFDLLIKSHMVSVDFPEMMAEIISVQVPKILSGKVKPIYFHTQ
Briefly: Binding affinity to rat ventral prostate androgen receptor at 1 uM. The class given is tissue-based. As to conditions: Prostate gland.

For experiment [3], the target named is T3, Estrogen receptor (Rattus norvegicus) (UniProt P06211).
T3 sequence (whole entry): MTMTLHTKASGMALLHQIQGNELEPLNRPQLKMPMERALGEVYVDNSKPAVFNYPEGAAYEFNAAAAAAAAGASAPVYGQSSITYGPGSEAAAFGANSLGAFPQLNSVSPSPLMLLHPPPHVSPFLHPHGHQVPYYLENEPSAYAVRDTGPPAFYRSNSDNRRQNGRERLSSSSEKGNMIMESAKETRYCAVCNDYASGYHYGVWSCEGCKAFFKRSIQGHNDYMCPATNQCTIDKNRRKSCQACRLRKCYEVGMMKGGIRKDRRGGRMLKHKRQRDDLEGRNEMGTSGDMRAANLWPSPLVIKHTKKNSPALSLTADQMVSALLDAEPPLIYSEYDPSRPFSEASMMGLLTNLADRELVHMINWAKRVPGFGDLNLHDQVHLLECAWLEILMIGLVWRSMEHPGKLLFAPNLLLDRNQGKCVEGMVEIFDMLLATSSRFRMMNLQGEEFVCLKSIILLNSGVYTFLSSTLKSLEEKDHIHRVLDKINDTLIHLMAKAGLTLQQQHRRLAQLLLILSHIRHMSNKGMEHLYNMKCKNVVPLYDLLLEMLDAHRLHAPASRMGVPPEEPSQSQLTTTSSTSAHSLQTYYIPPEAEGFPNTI
Briefly: Binding affinity to rat uterus estrogen receptor at 10 uM.

Experiment [4] addresses T1, Progesterone receptor (Rattus norvegicus). Briefly: Binding affinity to rat uterus progesterone receptor at 0.1 uM.
For experiment [5], the target named is T2, Androgen receptor (Rattus norvegicus). The experiment can be described thus: Binding affinity to rat ventral prostate androgen receptor at 10 uM. As to conditions: Prostate gland. The class given is tissue-based.

For the compound `CC1(C)CC[C@@]2(CC[C@H]3[C@@H]4CCc5ccccc5[C@H]4CC[C@@]32C)OC1=O`, the Activity in experiment [1] and in experiment [2] was 0% in each case.

`CC1(C)CC[C@@]2(CC[C@H]3[C@@H]4CCc5cc(O)ccc5[C@H]4CC[C@@]32C)OC1=O`: the Activity was 80% in experiment [3], 11% in experiment [4] and 6% in experiment [5].

The values are drawn from ChEMBL document CHEMBL1153852, “Steroidal lactones as inhibitors of 17beta-hydroxysteroid dehydrogenase type 5: chemical synthesis, enzyme inhibitory activity, and assessment of estrogenic and androgenic activities” (Eur J Med Chem, 2009).
